Reference: patent US12319655B2, “RAF kinase inhibitors and methods of use thereof” (Deciphera Pharmaceuticals, LLC, priority 2021, dated 2025)
Like-named read-outs stand apart in the source and are kept apart here.

Key:
[1] = tested on: Miapaca-2 cells; assay: MiaPaca-2 Cell Proliferation Assay (1); assay type: cell-based; conditions: Homo sapiens, MIA PaCa-2, single agent, read-out: MiaPaca2 (1) IC50
How it was run: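 Resazurin was added after compound exposure and incubated 5-6 h, then fluorescence read at 540 nm excitation and 600 nm emission to give IC50.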

[2] = molecular target: C-Raf kinase (SEQ. ID NO: 3) (Homo sapiens (Human), UniProt P04049, Y340D/Y341D); assay: Biochemical Assay for C-Raf (1); conditions: Table J
How it was run: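 Coupled pyruvate kinase/LDH assay tracking NADH oxidation at 340 nm, with 0.43 nM C-Raf, 30.1 nM MEK and 1 mM ATP in pH 7.5 Tris buffer (15 mM MgCl2, 1% DMSO final). Read continuously for 6 h at 30 °C, rate taken from the 4–5 h window. IC50 from four-parameter fit of percent inhibition.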

[3] = molecular target: B-Raf kinase (SEQ. ID NO: 2) (Homo sapiens (Human), UniProt P15056); assay: Biochemical Assay for B-Raf (1); conditions: Table J
How it was run: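 Continuous PK/LDH-coupled NADH oxidation assay, A340 read for 6 h at 30° C., with 0.13 nM B-Raf, 30.1 nM MEK substrate and 1 mM ATP in Tris pH 7.5, MgCl2, DTT, detergents, 1% DMSO. Rate taken from 4–5 h window; percent inhibition vs no-compound and known-inhibitor controls; four-parameter fit gives IC50.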

[4] = assay version (1), read-out: CRAF (1) IC50
[5] = assay version (1), read-out: BRAF (1) IC50
[6] = biochemical assay (1), read-out: CRAF (1)
[7] = biochemical assay (1), read-out: BRAF (1)

Chain of B-Raf kinase (SEQ. ID NO: 2) (P15056 416-766): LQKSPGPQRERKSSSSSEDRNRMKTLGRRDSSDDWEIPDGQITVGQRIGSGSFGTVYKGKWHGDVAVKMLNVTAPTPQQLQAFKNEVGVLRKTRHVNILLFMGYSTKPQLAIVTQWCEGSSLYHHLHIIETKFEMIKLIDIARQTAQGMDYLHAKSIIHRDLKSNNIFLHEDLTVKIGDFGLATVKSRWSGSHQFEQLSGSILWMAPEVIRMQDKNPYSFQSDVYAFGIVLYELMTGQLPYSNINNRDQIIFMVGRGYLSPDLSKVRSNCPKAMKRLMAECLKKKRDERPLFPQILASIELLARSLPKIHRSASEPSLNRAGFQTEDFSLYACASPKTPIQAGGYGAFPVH
Chain of C-Raf kinase (SEQ. ID NO: 3) (P04049 307-648 Y340D/Y341D): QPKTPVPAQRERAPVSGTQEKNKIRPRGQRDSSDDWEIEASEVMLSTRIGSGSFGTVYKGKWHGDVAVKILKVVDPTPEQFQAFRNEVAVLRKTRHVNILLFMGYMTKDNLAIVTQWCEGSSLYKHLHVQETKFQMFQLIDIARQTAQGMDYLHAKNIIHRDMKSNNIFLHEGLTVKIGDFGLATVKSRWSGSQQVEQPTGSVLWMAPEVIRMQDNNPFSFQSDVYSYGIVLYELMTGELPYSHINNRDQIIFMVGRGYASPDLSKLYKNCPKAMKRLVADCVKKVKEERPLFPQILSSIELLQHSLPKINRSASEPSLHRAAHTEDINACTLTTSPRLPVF

Work on `CC(=O)Nc1cc(-c2cc(-c3cc(NC(=O)c4ccnc(C(F)(F)F)c4)ccc3C)cc(OCCO)n2)ccn1` [Example 1, N-(3-(2′-acetamido-6-(2-hydroxyethoxy)-[2,4′-bipyridin]-4-yl)-4-methylphenyl)-2-(trifluoromethyl)isonicotinamide] yielded an IC50 [1] of 100 to 500 nM, an IC50 [2, 4] of at most 100 nM and an IC50 [3, 5] of at most 100 nM.
In the case of `CC(=O)Nc1cc(-c2cc(-c3cc(NC(=O)c4ccnc(C(F)(F)F)c4)c(F)cc3C)ccn2)ccn1` [Example 2], the IC50 [1] is reported as 1000 to 10000 nM, the IC50 [2, 4] is reported as at most 100 nM and the IC50 [3, 5] is reported as at most 100 nM.
In the case of `CC(=O)Nc1cc(-c2cc(-c3cc(NC(=O)c4cccc(C)c4)ccc3C)ccn2)ccn1` [Example 32], the IC50 [1] is reported as 1000 to 10000 nM, the IC50 [2, 4] is reported as at most 100 nM and the IC50 [3, 5] is reported as at most 100 nM.
In the case of `Cc1cc(F)c(NC(=O)c2ccnc(C(F)(F)F)c2)cc1-c1ccnc(-c2ccnc(NC=O)c2)c1` [Example 35], the IC50 [1] is reported as 1000 to 10000 nM, the IC50 [2, 4] is reported as at most 100 nM and the IC50 [3, 5] is reported as at most 100 nM.
For `CC(=O)Nc1cc(-c2cc(-c3cc(NC(=O)c4ccnc(C(F)(F)F)c4)cnc3C)ccn2)ccn1` [Example 36], the IC50 [1] was 1000 to 10000 nM, the IC50 [2, 4] was at most 100 nM and the IC50 [3, 5] was at most 100 nM.
In the case of `CC(=O)Nc1cc(-c2cc(-c3cc(NC(=O)c4cccc(C(F)(F)F)c4)cnc3C)ccn2)ccn1` [Example 37], the IC50 [1] is reported as 1000 to 10000 nM, the IC50 [2, 4] is reported as at most 100 nM and the IC50 [3, 5] is reported as at most 100 nM.
Compound `Cc1ccc(NC(=O)c2ccnc(C(F)(F)F)c2)cc1-c1ccnc(-c2ccnc(NC(=O)CC#N)c2)c1` [Example 39, N-(3-(2′-(2-cyanoacetamido)-[2,4′-bipyridin]-4-yl)-4-methylphenyl)-2-(trifluoromethyl)isonicotinamide] has an IC50 [1] of 1000 to 10000 nM, an IC50 [2, 4] of at most 100 nM and an IC50 [3, 5] of at most 100 nM.
`CNC(=O)c1cc(-c2cc(-c3cc(NC(=O)c4ccnc(C)c4)ccc3C)ccn2)ccn1` [Example 40] gave an IC50 [1] of 1000 to 10000 nM, an IC50 [2, 4] of at most 100 nM and an IC50 [3, 5] of at most 100 nM.
With `Cc1ccc(NC(=O)c2ccnc(C(F)(F)F)c2)cc1-c1ccnc(-c2ccnc(NC=O)c2)c1` [Example 46] the IC50 [1] was 1000 to 10000 nM, the IC50 [2, 4] was at most 100 nM and the IC50 [3, 5] was at most 100 nM.
Compound `CNC(=O)c1cc(-c2cncc(-c3cc(NC(=O)c4ccnc(C(F)(F)F)c4)ccc3C)n2)ccn1` [Example 47] has an IC50 [1] of 1000 to 10000 nM, an IC50 [2, 4] of at most 100 nM and an IC50 [3, 5] of at most 100 nM.
`Cc1cc(-c2cc(-c3cc(NC(=O)c4ccnc(C(C)(C)C#N)c4)ccc3C)ccn2)ccn1` [Example 49] was tested, and the IC50 [1] was 1000 to 10000 nM, the IC50 [2, 4] was at most 100 nM and the IC50 [3, 5] was 100 to 500 nM.
`COCC(=O)Nc1cc(-c2cccc(-c3cc(NC(=O)c4ccnc(C(F)(F)F)c4)ccc3C)c2)ccn1` [Example 57] gave an IC50 [1] of 1000 to 10000 nM, an IC50 [2, 4] of at most 100 nM and an IC50 [3, 5] of at most 100 nM.
`CC(=O)Nc1cc(-c2cc(-c3cc(NC(=O)c4ccnc(C)c4)ccc3C)ncn2)ccn1` [Example 59] gave an IC50 [1] of 1000 to 10000 nM, an IC50 [2, 4] of at most 100 nM and an IC50 [3, 5] of at most 100 nM.
With `CNC(=O)c1cc(-c2cc(-c3cc(NC(=O)c4ccnc(C)c4)ccc3C)ncn2)ccn1` [Example 60] the IC50 [1] was 1000 to 10000 nM, the IC50 [2, 4] was at most 100 nM and the IC50 [3, 5] was 100 to 500 nM.
In the case of `COCC(=O)Nc1cc(-c2cc(-c3cc(NC(=O)c4ccnc(C(C)(C)C#N)c4)ccc3C)ccn2)ccn1` [Example 61], the IC50 [1] is reported as 1000 to 10000 nM, the IC50 [2, 4] is reported as at most 100 nM and the IC50 [3, 5] is reported as at most 100 nM.
`CNC(=O)c1cc(-c2cncc(-c3cc(C(=O)Nc4cnn(C(C)C)c4)ccc3C)n2)ccn1` [Example 81] showed an IC50 [2, 4] of 100 to 500 nM and an IC50 [3, 5] of 100 to 500 nM.
`Cc1ccc(NC(=O)c2cn(C(C)C)nc2C)cc1-c1cc(-c2ccnc(NC(=O)C3CC3)c2)cnn1` [Example 373] showed an IC50 [2, 6] of at most 100 nM and an IC50 [3, 7] of at most 100 nM.
`CNC(=O)c1cc(-c2cnnc(-c3cc(NC(=O)CCC4(F)CC4)cnc3C)c2)ccn1` [Example 374] showed an IC50 [2, 6] of 1000 to 10000 nM and an IC50 [3, 7] of 1000 to 10000 nM.
`Cc1ccc(NC(=O)c2cnn(CC(F)(F)F)c2)cc1-c1cncc(-c2ccnc(C(N)=O)c2)c1` [Example 381] gave an IC50 [2, 6] of at most 100 nM and an IC50 [3, 7] of 100 to 500 nM.
For `CNC(=O)c1cc(-c2cncc(-c3cc(NC(=O)c4cnn(CC(F)(F)F)c4)ccc3C)c2)ncn1` [Example 382], the IC50 [2, 6] was at most 100 nM and the IC50 [3, 7] was 100 to 500 nM.
Compound `CNC(=O)c1cc(-c2cncc(-c3cc(NC(=O)Cn4cc(C(C)C)nn4)ccc3C)c2)ncn1` [Example 383] has an IC50 [2, 6] of 100 to 500 nM and an IC50 [3, 7] of 100 to 500 nM.
